Patent US9617221B2, “Kinase modulators for the treatment of cancer” (Synovo GmbH, priority 2010, dated 2017)

Legend:
[1] = tested on: pancreatic cancer; test: Survival of mice with pancreatic cancer; type: in vivo; conditions: Gemcitabine 100 mg/kg every 5th day; 43j 10 mmol/kg/d i.p.; 49 10 μmol/kg/day i.p.
Description: For treatment of pancreatic cancer, mice susceptible to pancreatic cancer were observed until cancer was apparent. Thereafter, animals were classified by ultrasound to a group of similar tumour size and were allocated to treatments: Vehicle, Gemcitabine 100 mg/kg every 5th day, or Gemcitabine plus the IL-10 inhibitor 43j ([…] i.p.), or the IL-12 stimulant 49 (10 μmol/kg/day i.p.) or all three combined at the doses specified.

[2] = tested on: Lewis Lung Carcinoma Cells (LLC); test: Subcutaneous Lewis Lung Carcinoma tumour growth; type: in vivo, C57BLK6 mice; conditions: 12.5 mg/kg p.o. once daily
Description: Lewis Lung Carcinoma Cells (LLC) are cultured by incubation in a medium which is RPMI 1640 (50%) and DMEM (50%) with a final concentration or fetal calf serum of 10%. After culture to the log phase, 10^5 cells are injected subcutaneously in […] mice. Mice are treated with substance either orally or via intraperitoneal injection.

Compound	survival time relative to vehicle [1] [fold]	growth rate of the LLC tumour [2]
Nc1ccn([C@@H]2O[C@H](CO)[C@@H](O)C2(F)F)c(=O)n1 [Gemcitabine]	1.5	–
CCc1nc(-c2cccc(C)c2)c(-c2ccnc(NC(=O)c3ccccc3)c2)s1 [TAK-715]	–	reduction in the growth rate of the LLC tumour
